Measurements reported in patent publication US20090232899A1, “Mucoadhesive nanocomposite delivery system” (priority 2004, published 2009).

Columns and labels:
[1] = test system: NIH3T3 fibroblast cells
[2] = low pH, simulated gastric fluid; cited from earlier work

Compound | Viability of fibroblasts, ratio (%) of absorbance of sample group to group without treatment (NT) [1] [%] | Stability under the testing conditions, compared with amoxicillin [2]
Chitosan | 90 ± 9 | –
Cc1ncc([N+](=O)[O-])n1CCO [Metronidazole] | – | greater stability
